Data published in patent US11993593B2, “Griseofulvin compound and pharmaceutical use thereof” (Daiichi Sankyo Company, Limited, priority 2017, dated 2024).

Tested on: Male ddY mice
Assay: Forced swim test
Assay type: in vivo
Details: Mus musculus, oral, dose 10 mg/kg, 4 hours after administration, immobility time measured for six minutes, ratio to control group (0.5% methylcellulose)
Description: (Test Example) Forced Swim Test
Male ddY mice (4 weeks old at the time of evaluation) were used for the test in groups of 10 mice. The mice were placed in a water bath (inner diameter 14.5 cm, height 20 cm, water temperature about 24° C.) with water filled to a height of about 15 cm, and a swimming trial was carried out for 15 minutes (training trial). The next day, mice were orally administered with a suspension of each compound (10 mL/kg, solvent: 0.5% methylcellulose aqueous solution) was orally administered to the mice, and four hours later, they were placed in the water bath. Immobility time (sec) was measured for six minutes immediately after that, and the ratio of the average immobility time of each compound administration group with respect to the average immobility time of a control group (10 mL/kg administration of 0.5% methylcellulose aqueous solution without a compound) was calculated.

SMILES	response vs control in vivo at 10 mg/kg [%]
COCCOc1cc(OC)c2c(c1Cl)O[C@]1(C2=O)C(OC)=CC(=O)C[C@H]1C [Example 2, (2S,5′R)-7-chloro-3′,4-dimethoxy-6-(2-methoxyethoxy)-5′-methyl-spiro [benzofuran-2,4′-cyclohex-2-ene]-1′,3-dione]	71
COC1=CC(=O)C[C@@H](C)[C@]12Oc1c(Cl)c(-c3ccn(C)n3)cc(OC)c1C2=O [Example 3, (2S,5′R)-7-chloro-3′,4-dimethoxy-5′-methyl-6-(1-methylpyrazol-3-yl) spiro [benzofuran-2,4′-cyclohex-2-ene]-1′,3-dione]	84
CCn1ccc(-c2cc(OC)c3c(c2Cl)O[C@]2(C3=O)C(OC)=CC(=O)C[C@H]2C)n1 [Example 4, (2S,5′R)-7-chloro-6-(1-ethylpyrazol-3-yl)-3′,4-dimethoxy-5′-methyl-spiro [benzofuran-2,4′-cyclohex-2-ene]-1′,3-dione]	61
COC1=CC(=O)C[C@@H](C)[C@]12Oc1c(Cl)c(-c3nnc(C)o3)cc(OC)c1C2=O [Example 5, (2S,5′R)-7-chloro-3′,4-dimethoxy-5′-methyl-6-(5-methyl-1,3,4-oxadiazol-2-yl) spiro [benzofuran-2,4′-cyclohex-2-ene]-1′,3-dione]	62
COC1=CC(=O)C[C@@H](C)[C@]12Oc1c(Cl)c(-c3nc(C)no3)cc(OC)c1C2=O [Example 6, (2S,5′R)-7-chloro-3′,4-dimethoxy-5′-methyl-6-(3-methyl-1,2,4-oxadiazol-5-yl) spiro [benzofuran-2,4′-cyclohex-2-ene]-1′,3-dione]	67
CCc1nnc(-c2cc(OC)c3c(c2Cl)O[C@]2(C3=O)C(OC)=CC(=O)C[C@H]2C)o1 [Example 17, (2S,5′R)-7-chloro-6-(5-ethyl-1,3,4-oxadiazol-2-yl)-3′,4-dimethoxy-5′-methyl-spiro [benzofuran-2,4′-cyclohex-2-ene]-1′,3-dione]	72
COC1=CC(=O)C[C@@H](C)[C@]12Oc1c(Cl)c(-c3nnc(C4CCOCC4)o3)cc(OC)c1C2=O [Example 18, (2S,5′R)-7-chloro-3′,4-dimethoxy-5′-methyl-6-(5-tetrahydropyran-4-yl-1,3,4-oxadiazol-2-yl) spiro [benzofuran-2,4′-cyclohex-2-ene]-1′,3-dione]	85
COC1=CC(=O)C[C@@H](C)[C@]12Oc1c(Cl)c(-c3nnc([C@H](C)OC)o3)cc(OC)c1C2=O [Example 21, (2S,5′R)-7-chloro-3′,4-dimethoxy-6-[5-[(1S)-1-methoxyethyl]-1,3,4-oxadiazol-2-yl]-5′-methyl-spiro [benzofuran-2,4′-cyclohex-2-ene]-1′,3-dione]	87
CCOc1cc(-c2nnc(C)o2)c(Cl)c2c1C(=O)[C@@]1(O2)C(OC)=CC(=O)C[C@H]1C [Example 22, (2S,5′R)-7-chloro-4-ethoxy-3′-methoxy-5′-methyl-6-(5-methyl-1,3,4-oxadiazol-2-yl) spiro [benzofuran-2,4′-cyclohex-2-ene]-1′,3-dione]	88
COC1=CC(=O)C[C@@H](C)[C@]12Oc1c(Cl)c(-c3nc(C(C)OC)no3)cc(OC)c1C2=O (stereo partly drawn) [Example 24, (2S,5′R)-7-chloro-3′,4-dimethoxy-6-[3-(1-methoxyethyl)-1,2,4-oxadiazol-5-yl]-5′-methyl-spiro [benzofuran-2,4′-cyclohex-2-ene]-1′,3-dione]	65
COC1=CC(=O)C[C@@H](C)[C@]12Oc1c(Cl)c(-c3nc(C(C)(C)O)no3)cc(OC)c1C2=O [Example 25, (2S,5′R)-7-chloro-6-[3-(1-hydroxy-1-methyl-ethyl)-1,2,4-oxadiazol-5-yl]-3′,4-dimethoxy-5′-methyl-spiro [benzofuran-2,4′-cyclohex-2-ene]-1′,3-dione]	58
COC1=CC(=O)C[C@@H](C)[C@]12Oc1c(Cl)c(-c3ccn[nH]3)cc(OC)c1C2=O [Example 26, (2S,5′R)-7-chloro-3′,4-dimethoxy-5′-methyl-6-(1H-pyrazol-5-yl) spiro [benzofuran-2,4′-cyclohex-2-ene]-1′,3-dione]	72
COC1=CC(=O)C[C@@H](C)[C@]12Oc1c(Cl)c(C3=NOC4(CCOCC4)C3)cc(OC)c1C2=O [Example 28, (2S,5′R)-7-chloro-6-(1,8-dioxa-2-azaspiro [4.5]dec-2-en-3-yl)-3′,4-dimethoxy-5′-methyl-spiro [benzofuran-2,4′-cyclohex-2-ene]-1′,3-dione]	80
COC1=CC(=O)C[C@@H](C)[C@]12Oc1c(Cl)c(-c3cnc(OC)nc3)cc(OC)c1C2=O [Example 30, (2S,5′R)-7-chloro-3′,4-dimethoxy-6-(2-methoxypyrimidin-5-yl)-5′-methyl-spiro [benzofuran-2,4′-cyclohex-2-ene]-1′,3-dione]	70
COC1=CC(=O)C[C@@H](C)[C@]12Oc1c(Cl)c(-c3ccc(OC)nc3)cc(OC)c1C2=O [Example 31, (2S,5′R)-7-chloro-3′,4-dimethoxy-6-(6-methoxy-3-pyridyl)-5′-methyl-spiro [benzofuran-2,4′-cyclohex-2-ene]-1′,3-dione]	68

Same assay, conditions: Mus musculus, oral, dose 100 mg/kg, 4 hours after administration, immobility time measured for six minutes, ratio to control group (0.5% methylcellulose)

SMILES	response vs control in vivo at 100 mg/kg [%]
COC1=CC(=O)C[C@@H](C)[C@]12Oc1c(Cl)c(OC)cc(OC)c1C2=O [Griseofulvin, (2S,5′R)-7-chloro-3′,4,6-trimethoxy-5′-methyl-spiro [benzofuran-2,4′-cyclohex-2-ene]-1′,3-dione]	72
